Results published in patent US6525001B1, “Substituted pyrimidine and pyridine herbicides” (Mid-American Commercialization Corporation, priority 1997, dated 2003).

What was measured:
Format in all cases: in vivo
Parameters in all cases: key: 0 is no effect; 10 is complete control
[1] = tested on: giant foxtail (Setaria faberii); test: Test B pre-/postemergence
How it was run: (§1)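 Compounds in a surfactant-containing, non-phytotoxic solvent blend are applied to freshly planted seed (preemergence) and, concurrently, to seedlings of 2 to 18 cm at 1–4 leaves (postemergence). Plants stay in the greenhouse twelve to sixteen days and are then scored visually from 0 (no effect) to 10 (complete control).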

[2] = tested on: purple nutsedge (Cyperus rotundus); test: Test B pre-/postemergence
How it was run: as §1

[3] = tested on: bamyardgrass (Echinochloa crus-galli); test: Test B flood test
How it was run: (§2)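 Read-out is a visual response score from 0 (no effect) to 10 (complete control), assigned by comparison with untreated controls. Treatment was applied at the 2-leaf stage, and plants stayed in the greenhouse for twelve to sixteen days before scoring.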

[4] = tested on: duck salad (Heteranthera limosa); test: Test B flood test
How it was run: as §2

[5] = tested on: rice (Oryza sativa); test: Test B flood test
How it was run: as §2

[6] = tested on: smallflower flatsedge (Cyperus difformis); test: Test B flood test
How it was run: as §2

[7] = Rate 62 g/ha, Postemergence (flood test)
[8] = Rate 125 g/ha, Postemergence, flood test
[9] = Rate 250 g/ha, Postemergence (flood test species)
[10] = Rate 500 g/ha, Postemergence (flood test species)

Cc1cnc(-c2ccc(Cl)cc2)nc1Cn1ccc(C(F)(F)F)n1 [Compound 6]
Giant foxtail plant response rating ([1]; Rate 62 g/ha, Preemergence): 2
Plant response rating, Giant foxtail ([1]; Rate 125 g/ha, Postemergence): 4
Giant foxtail plant response rating ([1]; Rate 125 g/ha, Preemergence): 6
Plant response rating, Giant foxtail ([1]; Rate 250 g/ha, Postemergence): 5
Plant response rating, Giant foxtail ([1]; Rate 250 g/ha, Preemergence): 9
Plant response rating, Giant foxtail ([1]; Rate 500 g/ha, Postemergence): 6
Plant response rating, Giant foxtail ([1]; Rate 500 g/ha, Preemergence): 10
Plant response rating, Nutsedge ([2]; Rate 62 g/ha, Postemergence): 2
Nutsedge plant response rating ([2]; Rate 62 g/ha, Preemergence): 0
Nutsedge plant response rating ([2]; Rate 125 g/ha, Preemergence): 0
Plant response rating, Nutsedge ([2]; Rate 250 g/ha, Postemergence): 2
Plant response rating, Nutsedge ([2]; Rate 250 g/ha, Preemergence): 0
Plant response rating, Nutsedge ([2]; Rate 500 g/ha, Postemergence): 3
Plant response rating, Nutsedge ([2]; Rate 500 g/ha, Preemergence): 0
Plant response rating, Barnyardgrass [3, 7]: 0
Plant response rating, Barnyardgrass [3, 8]: 1
Plant response rating, Barnyardgrass [3, 9]: 2
Plant response rating, Barnyardgrass [3, 10]: 3
Plant response rating, Ducksalad [4, 7]: 0
Plant response rating, Ducksalad [4, 8]: 0
Plant response rating, Ducksalad [4, 9]: 0
Plant response rating, Ducksalad [4, 10]: 6
Plant response rating, Rice [5, 7]: 1
Plant response rating, Rice [5, 8]: 2
Plant response rating, Rice [5, 9]: 2
Plant response rating, Rice [5, 10]: 3
Plant response rating, S. Flatsedge [6, 7]: 3
Plant response rating, S. Flatsedge [6, 8]: 5
Plant response rating, S. Flatsedge [6, 9]: 7
Plant response rating, S. Flatsedge [6, 10]: 7

Cc1cnc(-c2ccc(C(F)(F)F)cc2)nc1Cn1cnc(C(F)(F)F)c1 [Compound 10]
Plant response rating, Giant foxtail ([1]; Rate 62 g/ha, Postemergence): 2
Giant foxtail plant response rating ([1]; Rate 62 g/ha, Preemergence): 3
Plant response rating, Giant foxtail ([1]; Rate 125 g/ha, Postemergence): 2
Giant foxtail plant response rating ([1]; Rate 125 g/ha, Preemergence): 7
Plant response rating, Giant foxtail ([1]; Rate 250 g/ha, Postemergence): 4
Plant response rating, Giant foxtail ([1]; Rate 250 g/ha, Preemergence): 8
Plant response rating, Giant foxtail ([1]; Rate 500 g/ha, Postemergence): 5
Plant response rating, Giant foxtail ([1]; Rate 500 g/ha, Preemergence): 9
Plant response rating, Nutsedge ([2]; Rate 62 g/ha, Postemergence): 0
Nutsedge plant response rating ([2]; Rate 62 g/ha, Preemergence): 0
Plant response rating, Nutsedge ([2]; Rate 125 g/ha, Postemergence): 0
Nutsedge plant response rating ([2]; Rate 125 g/ha, Preemergence): 0
Plant response rating, Nutsedge ([2]; Rate 250 g/ha, Postemergence): 0
Plant response rating, Nutsedge ([2]; Rate 250 g/ha, Preemergence): 0
Plant response rating, Nutsedge ([2]; Rate 500 g/ha, Postemergence): 3
Plant response rating, Nutsedge ([2]; Rate 500 g/ha, Preemergence): 0
Plant response rating, Barnyardgrass [3, 7]: 1
Plant response rating, Barnyardgrass [3, 8]: 2
Plant response rating, Barnyardgrass [3, 9]: 3
Plant response rating, Barnyardgrass [3, 10]: 4
Plant response rating, Ducksalad [4, 7]: 1
Plant response rating, Ducksalad [4, 8]: 1
Plant response rating, Ducksalad [4, 9]: 3
Plant response rating, Ducksalad [4, 10]: 5
Plant response rating, Rice [5, 7]: 0
Plant response rating, Rice [5, 8]: 2
Plant response rating, Rice [5, 9]: 2
Plant response rating, Rice [5, 10]: 3
Plant response rating, S. Flatsedge [6, 7]: 6
Plant response rating, S. Flatsedge [6, 8]: 9
Plant response rating, S. Flatsedge [6, 9]: 9
Plant response rating, S. Flatsedge [6, 10]: 9

Cc1cnc(-c2ccc(C(F)(F)F)cc2)nc1Cn1cc(I)cn1 [Compound 12]
Plant response rating, Giant foxtail ([1]; Rate 62 g/ha, Postemergence): 2
Giant foxtail plant response rating ([1]; Rate 62 g/ha, Preemergence): 5
Plant response rating, Giant foxtail ([1]; Rate 125 g/ha, Postemergence): 3
Giant foxtail plant response rating ([1]; Rate 125 g/ha, Preemergence): 7
Plant response rating, Giant foxtail ([1]; Rate 250 g/ha, Postemergence): 3
Plant response rating, Giant foxtail ([1]; Rate 250 g/ha, Preemergence): 9
Plant response rating, Giant foxtail ([1]; Rate 500 g/ha, Postemergence): 4
Plant response rating, Giant foxtail ([1]; Rate 500 g/ha, Preemergence): 9
Plant response rating, Nutsedge ([2]; Rate 62 g/ha, Postemergence): 0
Nutsedge plant response rating ([2]; Rate 62 g/ha, Preemergence): 0
Plant response rating, Nutsedge ([2]; Rate 125 g/ha, Postemergence): 0
Nutsedge plant response rating ([2]; Rate 125 g/ha, Preemergence): 0
Plant response rating, Nutsedge ([2]; Rate 250 g/ha, Postemergence): 0
Plant response rating, Nutsedge ([2]; Rate 250 g/ha, Preemergence): 0
Plant response rating, Nutsedge ([2]; Rate 500 g/ha, Postemergence): 0
Plant response rating, Nutsedge ([2]; Rate 500 g/ha, Preemergence): 0
Plant response rating, Barnyardgrass [3, 7]: 2
Plant response rating, Barnyardgrass [3, 8]: 2
Plant response rating, Barnyardgrass [3, 9]: 3
Plant response rating, Barnyardgrass [3, 10]: 3
Plant response rating, Ducksalad [4, 7]: 0
Plant response rating, Ducksalad [4, 8]: 1
Plant response rating, Ducksalad [4, 9]: 1
Plant response rating, Ducksalad [4, 10]: 2
Plant response rating, Rice [5, 7]: 1
Plant response rating, Rice [5, 8]: 2
Plant response rating, Rice [5, 9]: 3
Plant response rating, Rice [5, 10]: 3
Plant response rating, S. Flatsedge [6, 7]: 4
Plant response rating, S. Flatsedge [6, 8]: 6
Plant response rating, S. Flatsedge [6, 9]: 8
Plant response rating, S. Flatsedge [6, 10]: 8

Cc1cnc(-c2ccc(C(F)(F)F)cc2)nc1Cn1nc(C(F)(F)F)cc1C [Compound 13]
Plant response rating, Giant foxtail ([1]; Rate 62 g/ha, Postemergence): 2
Giant foxtail plant response rating ([1]; Rate 62 g/ha, Preemergence): 9
Plant response rating, Giant foxtail ([1]; Rate 125 g/ha, Postemergence): 3
Giant foxtail plant response rating ([1]; Rate 125 g/ha, Preemergence): 10
Plant response rating, Giant foxtail ([1]; Rate 250 g/ha, Postemergence): 4
Plant response rating, Giant foxtail ([1]; Rate 250 g/ha, Preemergence): 10
Plant response rating, Giant foxtail ([1]; Rate 500 g/ha, Postemergence): 5
Plant response rating, Giant foxtail ([1]; Rate 500 g/ha, Preemergence): 10
Plant response rating, Nutsedge ([2]; Rate 62 g/ha, Postemergence): 0
Nutsedge plant response rating ([2]; Rate 62 g/ha, Preemergence): 0
Plant response rating, Nutsedge ([2]; Rate 125 g/ha, Postemergence): 0
Nutsedge plant response rating ([2]; Rate 125 g/ha, Preemergence): 0
Plant response rating, Nutsedge ([2]; Rate 250 g/ha, Postemergence): 0
Plant response rating, Nutsedge ([2]; Rate 250 g/ha, Preemergence): 0
Plant response rating, Nutsedge ([2]; Rate 500 g/ha, Postemergence): 0
Plant response rating, Nutsedge ([2]; Rate 500 g/ha, Preemergence): 0
Plant response rating, Barnyardgrass [3, 7]: 2
Plant response rating, Barnyardgrass [3, 8]: 2
Plant response rating, Barnyardgrass [3, 9]: 3
Plant response rating, Barnyardgrass [3, 10]: 3
Plant response rating, Ducksalad [4, 7]: 0
Plant response rating, Ducksalad [4, 8]: 1
Plant response rating, Ducksalad [4, 9]: 2
Plant response rating, Ducksalad [4, 10]: 3
Plant response rating, Rice [5, 7]: 0
Plant response rating, Rice [5, 8]: 0
Plant response rating, Rice [5, 9]: 0
Plant response rating, Rice [5, 10]: 1
Plant response rating, S. Flatsedge [6, 7]: 2
Plant response rating, S. Flatsedge [6, 8]: 4
Plant response rating, S. Flatsedge [6, 9]: 4
Plant response rating, S. Flatsedge [6, 10]: 5

Cc1cnc(-c2ccc(C(F)(F)F)cc2)nc1Cn1ccc(C(F)(F)C(F)(F)F)n1 [Compound 14]
Plant response rating, Giant foxtail ([1]; Rate 62 g/ha, Postemergence): 1
Giant foxtail plant response rating ([1]; Rate 62 g/ha, Preemergence): 0
Plant response rating, Giant foxtail ([1]; Rate 125 g/ha, Postemergence): 1
Giant foxtail plant response rating ([1]; Rate 125 g/ha, Preemergence): 4
Plant response rating, Giant foxtail ([1]; Rate 250 g/ha, Postemergence): 1
Plant response rating, Giant foxtail ([1]; Rate 250 g/ha, Preemergence): 7
Plant response rating, Giant foxtail ([1]; Rate 500 g/ha, Postemergence): 3
Plant response rating, Giant foxtail ([1]; Rate 500 g/ha, Preemergence): 9
Plant response rating, Nutsedge ([2]; Rate 62 g/ha, Postemergence): 0
Nutsedge plant response rating ([2]; Rate 62 g/ha, Preemergence): 0
Plant response rating, Nutsedge ([2]; Rate 125 g/ha, Postemergence): 0
Nutsedge plant response rating ([2]; Rate 125 g/ha, Preemergence): 0
Plant response rating, Nutsedge ([2]; Rate 250 g/ha, Postemergence): 0
Plant response rating, Nutsedge ([2]; Rate 250 g/ha, Preemergence): 0
Plant response rating, Nutsedge ([2]; Rate 500 g/ha, Postemergence): 0
Plant response rating, Nutsedge ([2]; Rate 500 g/ha, Preemergence): 0
Plant response rating, Barnyardgrass [3, 7]: 4
Plant response rating, Barnyardgrass [3, 8]: 5
Plant response rating, Barnyardgrass [3, 9]: 5
Plant response rating, Barnyardgrass [3, 10]: 6
Plant response rating, Ducksalad [4, 7]: 2
Plant response rating, Ducksalad [4, 8]: 2
Plant response rating, Ducksalad [4, 9]: 2
Plant response rating, Ducksalad [4, 10]: 3
Plant response rating, Rice [5, 7]: 4
Plant response rating, Rice [5, 8]: 4
Plant response rating, Rice [5, 9]: 5
Plant response rating, Rice [5, 10]: 5
Plant response rating, S. Flatsedge [6, 7]: 8
Plant response rating, S. Flatsedge [6, 8]: 8
Plant response rating, S. Flatsedge [6, 9]: 8
Plant response rating, S. Flatsedge [6, 10]: 9
